According to patent publication US20080221134A1, “8-ALKYNYLXANTHINES AND DERIVATIVES” (priority 2006, published 2008):
pIC50, pKi: −log10 of the molar value.

How the values were obtained:
Adenosine A2A = Adenosine A2A (Homo sapiens, UniProt P29274); experiment: Functional assay (luciferase reporter), inhibition of A2A adenosine receptor; type: cell-based; design: expressed in transfected cells; host or cells: CHO-DUKX-CRE-A2A-19 (CHO-DUKX, vector pCineo); conditions: for pIC50: CHO-DUKX-CRE-A2A-19 cells, 60 nM NECA, read-out: A2A AR IC50; for A2A AR Imax: Imax in % of the corresponding antagonist; for pKi: Ki=IC50/(1+agonist concentration/EC50), read-out: A2A AR Ki
Sequence of Adenosine A2A (P29274 whole entry): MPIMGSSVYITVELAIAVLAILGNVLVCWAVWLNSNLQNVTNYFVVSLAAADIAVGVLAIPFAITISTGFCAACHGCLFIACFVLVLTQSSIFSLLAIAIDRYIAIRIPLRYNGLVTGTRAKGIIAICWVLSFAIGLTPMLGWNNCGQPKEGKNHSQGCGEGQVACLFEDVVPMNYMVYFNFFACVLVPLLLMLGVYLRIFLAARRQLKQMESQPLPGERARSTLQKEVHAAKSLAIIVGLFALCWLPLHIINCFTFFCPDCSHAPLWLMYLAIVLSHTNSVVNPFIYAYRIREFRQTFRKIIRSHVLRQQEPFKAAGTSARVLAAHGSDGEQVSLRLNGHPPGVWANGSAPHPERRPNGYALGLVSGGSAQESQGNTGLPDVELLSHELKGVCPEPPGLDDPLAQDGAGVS

Adenosine A1 = target: T1, Adenosine A1 (Homo sapiens, UniProt P30542); experiment: Functional assay (luciferase reporter), inhibition of A1 adenosine receptor; type: cell-based; design: expressed in transfected cells; host or cells: CHO-DUKX-SRE-Luci-A1-44 (CHO-DUKX, vector pCineo); conditions: for pIC50 / A1 AR IC50: CHO-DUKX-SRE-Luci-A1-44 cells, 3.5 μM ADAC; for pIC50: read-out: A1 AR IC50; for A1 AR Imax: Imax in % of the corresponding antagonist (CPX); for pKi / A1 AR Ki: Ki=IC50/(1+agonist concentration/EC50); for pKi: read-out: A1 AR Ki
T1 sequence (P30542 1-326): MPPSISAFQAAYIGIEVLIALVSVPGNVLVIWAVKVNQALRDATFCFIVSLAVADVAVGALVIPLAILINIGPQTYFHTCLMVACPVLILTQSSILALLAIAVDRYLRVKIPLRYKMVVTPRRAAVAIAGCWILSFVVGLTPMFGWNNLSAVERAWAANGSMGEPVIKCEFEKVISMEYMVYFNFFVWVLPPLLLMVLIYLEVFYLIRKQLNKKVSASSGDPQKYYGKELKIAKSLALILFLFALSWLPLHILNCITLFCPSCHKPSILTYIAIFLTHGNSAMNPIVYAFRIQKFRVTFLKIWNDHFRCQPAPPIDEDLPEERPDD

rats = experiment: Modified Irwin test (FOB, SAC, FU); type: in vivo, rat; design: key to Hypersensitivity / Temperature / Respiration / Tremor / Stereotypies / Patterns Activity / Motor Coordination / Catalepsy: +++ = very strong effect.; ++ = strong effect.; + = average effect.; 0 = no effect.; − = negative effect; conditions: modified Irwin test, 0.01-30 mg/kg, compressed outcome
Text: In this study the compounds of the present invention were screened for basal behavioural, autonomic, neurological and toxicological side-effects in rats. For this purpose, a functional observational battery (FOB) in form of an Irwin test (Irwin S., Psychopharmacologia, 1968, 13, 222; 1968; Warburton D. M. Psychopharmacology, 2002, 163, 4; Haggerty G. C. et al., J. Amer. Coll. Toxicol., 1991, 10, 677; Mattsson J. L. et al., J. Amer. Coll. Toxicol., 1996, 15, 239, all references are herein incorporated by reference) modified and validated by the Test Facility was used. Each test compound was tested at eight doses (0.01, 0.03, 0.1, 0.3, 1.0, 3.0, 10.0 and 30.0 mg/kg). All compounds were dissolved in DMSO (administration volume 1 ml/kg). Each dose group included three animals. Two vehicle groups (DMSO and Labrasol) served as negative controls.
At the first day of each test week all test compound solutions necessary for the test (1-2 weeks) were prepared by means of one dilution series starting with the highest concentration. All test compounds dissolved in DMSO were administered in a volume of 1 ml/kg. DMSO-containing solutions were stored at −18° C. All solutions were melted for administration at room temperature 16-20 hours before the start of the test.
Study design and time schedule:
4-7 days: Acclimatization and handling of the animals 1 day: Test day with • (a) Four repeated functional observational battery (FOB): 30 min, 60 min, 120 min, 180 min following compound administration • (b) Short animal check (SAC): 300 min following compound administration 1 day: Follow-up observation (FU): • 24 h (1440 min) following compound administration.
In all experimental parts, an experienced ethologist used lists of predefined methods and behavioural parameters in order to rate the behaviour of the animal (see table 7 for functional observational battery (FOB), table 8 for short animal check (SAC) and table 9 for follow-up observation (FU).
A statistical evaluation of the data was performed that enabled an assessment of the compound's effects on each parameter. Dose-response relationships are not necessarily linear. It was not clear a priori whether the response would be dose-dependent or whether low, medium or high dose effects would occur. Therefore, the data were correlated against a set of different numeric models of theoretical dose-response curves. For this kind of evaluation the measurement times were not differentiated. An average value over all measurement times was calculated for each animal. This value was taken as one measurement within the observation vector. The complete set of parameters measured for the animal (each one averaged over time) formed the observation vector. Each dose was then represented by three observation vectors (3 animals per dose). The effects of all doses were compared with vehicle (DMSO) as the observation vectors for the zero dose. A common pool of 24 animals for the zero dose was used for all compounds to be tested. For each test compound the obtained values for each parameter together with values from the pool of vehicle-treated (DMSO) animals were then correlated with theoretical dose-response models (analysis profiles). Since 8 doses were be used, there were 8 models, each assuming that the maximum compound effect occurred at one of these doses. Effects of other doses were assumed to be attenuated with a linearly descending slope of the theoretical curve. Correlation values and statistical significance of regression were then calculated. An error probability of p<0.05 (two-tailed testing) was taken as significance level. Non-significant regressions were neglected. In consequence, each parameter was assessed as not affected or affected by the compound in a dose-response relationship according to type 1 (low dose effect) up to type 8 (high dose effect). Dose response is maximal for the effect with the greatest absolute correlation coefficient. […]

[1] = tested on: CGS-21680 induced catalepsy; experiment: Acute CGS-21680 induced catalepsy test; type: in vivo, rat; conditions: vs only CGS-21680-treated animals
Description: Animals were administered with Reserpine or CGS-21680 according to methods known to the skilled person in the art. These models and procedures are e.g. described by Ferré S. et al., Neurosci. Let., 1991, 130, 162; Ferré S. et al., Neuroscience, 1992, 51, 501; Kafka S. H. et al., Eur. J. Pharmacol., 1996, 295, 147; Rimondini R. et al., Neuropsychopharmacology, 1997, 17, 82 and are herein incorporated by reference. In the acute CGS-21680 induced catalepsy model (CGS model) the test compounds (TC, compounds according to the present invention) and CGS-21680 (i.p. 2 mg/kg) were administered 60 minutes before the start of the catalepsy bar measurement and behavioural testing described below (see also FIG. 1). In the acute Reserpine induced catalepsy model (RES model Resperine (subcutaneously, 3 mg/kg) was injected 24 h prior to the test compound application. Catalepsy bar measurement took place 60 minutes after test compound application (see FIG. 1). Test compounds were administered i.p. in DMSO in following doses (mg/kg): 0.1, 0.3, 1, 3, 10.
Dimethylsulfoxide (DMSO) was used as vehicle for the test compounds and Reserpine. Reserpine was dissolved in DMSO in a concentration of 3 mg/ml. A 10% (w/v) Cyclodextrin solution was used as vehicle for CGS-21680. CGS 21680 was dissolved in 10% (w/v) Cyclodextrine in a concentration of 2 mg/ml.
Caffeine was used as a reference compound in the CGS-21680 induced catalepsy model. A caffeine solution was prepared with water for injection purposes to a concentration of 30 mg/ml. The solution was administered intraperitoneally in a volume of 1 ml/kg (30 mg/kg) 30 minutes before the beginning of testing and after CGS-21680 pre-treatment (1 hour prior to testing).
The catalepsy bar after CGS-21680 administration was measured (CAT) as follows: The rat was placed with its forepaws on a log of wood. […] If the animal descended faster than 1 second, the trial was regarded as invalid. If more than 20 trials were rated as invalid, the values of all uncompleted trials were noted as 0. The animal was tested until five trials had been completed and the time for each trial was noted. Only the values of the last three trials were used for the analysis. The following parameters were calculated: maximum time to descend (s) and median time to descend (s).
Behavioural observation (BO) included the measurement of the body tone, inclined plane and grip strength.
The rat is taken in the hand of the observer and the animal's body tone is rated as normal, soft or hard. The rating is performed immediately after taking the animal from its home cage before performance of catalepsy testing. The following parameters were calculated: mean occurrence of hard body tone and mean occurrence of soft body tone.
The rat is horizontally placed to an inclined plane for a maximum time of 30 seconds. Time to reach bottom or top is measured. […] The test is performed after catalepsy testing. Time to leave the inclined plane(s) was measured.
The rat is put on a grip and the observer pulls the animal back on his tail. The strength (fore paws and hind paws) by which it holds on the grid is scored as grasping and pulling, grasping without pulling or no grasping. The test is performed after the inclined plane test. The following parameters were calculated: mean score of fore paw grip strength and mean score of hind paw grip strength.
All statistical tests were performed two tailed with a value of p<0.05 considered as significant.
To assess the effects of CGS-21680 and Reserpine pre-treatment compared to vehicle treated controls statistical comparisons between the test groups were performed using a U test statistic.
To assess the effects of test compounds on CGS-21680 and Reserpine pre-treated animals correlation analyses including animals from test groups and the respective test compound-treated groups were performed. […]

SMILES | pIC50 (Adenosine A2A) | A2A AR Imax (Adenosine A2A) | pKi (Adenosine A2A) | pIC50 (Adenosine A1) | A1 AR Imax (Adenosine A1) | pKi (Adenosine A1) | also measured
C#CCn1c(=O)c2c(nc(C#Cc3ccc(OC)c(OC)c3)n2C)n(CCCO)c1=O [drawing 625] |  |  |  |  |  |  | Catalepsy (rats): 0; Hypersensitivity (rats): 0; Motor Coordination (rats): −; Patterns Activity (rats): ++; Respiration (rats): +++; Stereotypies (rats): +; Temperature (rats): −; Tremor (rats): +
C#CCn1c(=O)c2c(nc(C#Cc3cccc(OC)c3)n2C)n(C)c1=O [drawing 617] | 5.72 | 90% | 6.75 |  | Nosignificantactivitydetected |  | A1 AR IC50 (Adenosine A1): Nosignificantactivitydetected; A1 AR Ki (Adenosine A1): Nosignificantactivitydetected
C#CCn1c(=O)c2c(nc(C#Cc3cccc(OC)c3)n2C)n(CCCO)c1=O [drawing 626] |  |  |  |  |  |  | Catalepsy (rats): 0; Hypersensitivity (rats): +; Motor Coordination (rats): 0; Patterns Activity (rats): +; Respiration (rats): ++; Stereotypies (rats): 0; Temperature (rats): 0; Tremor (rats): 0
CCCn1c(=O)c2[nH]c(C3CCCC3)nc2n(CCC)c1=O [CPX, 8-Cyclopentyl 1,3-diprophylxanthine, reference compound] |  |  |  |  | 100% |  | 
Cn1c(=O)c2c(ncn2C)n(C)c1=O [caffeine, 1,3,7-trimethylxanthine, reference compound] |  |  |  |  |  |  | hard body tone after CGS-21680 treatment [1]: increased; maximum catalepsy values after CGS-21680 treatment [1]: significantly decreased; median catalepsy values after CGS-21680 treatment [1]: significantly decreased; soft body tone after CGS-21680 treatment [1]: decreased
C#CCn1c(=O)c2c(nc(C#Cc3ccc(OC)c(OC)c3)n2C)n(CC)c1=O [drawing 624] |  |  |  |  |  |  | Catalepsy (rats): 0; Hypersensitivity (rats): ++; Motor Coordination (rats): 0; Patterns Activity (rats): +++; Respiration (rats): +++; Stereotypies (rats): ++; Temperature (rats): +; Tremor (rats): 0

Now from value to compound, other results behind:

pIC50 (Adenosine A2A) | A2A AR Imax (Adenosine A2A) | pKi (Adenosine A2A) | pIC50 (Adenosine A1) | A1 AR Imax (Adenosine A1) | pKi (Adenosine A1) | SMILES | also measured
6.70 | 97% | 7.64 | 5.41 | 49% | 6.07 | C#CCn1c(=O)c2c(nc(C#Cc3ccc(OC)c(OC)c3)n2C)n(CC)c1=O [drawing 618] | 
6.52 | 117% | 7.59 | 5.74 | 92% | 6.40 | C#CCn1c(=O)c2c(nc(C#Cc3ccc(OC)c(OC)c3)n2C)n(CCCO)c1=O [drawing 622] | 
6.40 | 109% | 7.40 | 5.89 | 102% | 6.54 | C#CCn1c(=O)c2c(nc(C#Cc3cccc(C)c3)n2C)n(CCCO)c1=O [drawing 623] | 
6.22 | 95% | 7.24 |  | Nosignificantactivitydetected |  | C#CCn1c(=O)c2c(nc(C#Cc3ccc(OC)c(OC)c3)n2C)n(C)c1=O [drawing 619] | A1 AR IC50 (Adenosine A1): Nosignificantactivitydetected; A1 AR Ki (Adenosine A1): Nosignificantactivitydetected
6.05 | 117% | 7.09 | 5.77 | 90% | 6.43 | C#CCn1c(=O)c2c(nc(C#Cc3cccc(OC)c3)n2C)n(CCCO)c1=O [drawing 620] | 
6.30 | 86% | 7.33 | 5.64 | 55% | 6.30 | C#CCn1c(=O)c2c(nc(C#Cc3cccc(OC)c3)n2CC#C)n(C)c1=O [drawing 621] | 
